# Experiments:
# HEK293 cells = assay: MTT cytotoxicity assay, HEK293; type: cell-based; settings: Homo sapiens, 24 h exposure, mean ± SD, three biological replicates
# Text: The human cell lines TK10 (human kidney adenocarcinoma), UACC62 (human melanoma) and MCF7 (human breast adenocarcinoma) were obtained from the National Cancer Institute (NCI) as part of a panel widely studied for drug screening and molecular target identification. Melanoma (A375) and human embryonic kidney (HEK293) were acquired from the American Type Culture Collection; ATCC® CRL-1619™ and ATCC® CRL-1573™ respectively. The nontumorigenic human immortalized keratinocyte (HaCaT) cells were a kind donation by the School of Anatomical Sciences, Faculty of Health Sciences, University of the Witwatersrand, South Africa. HaCaT cells were chosen as the nonmalignant control due to their ease of propagation, near normal phenotype and general use as an A375 control ([Dwivedi et al., 2015]; [Lewies et al., 2018]). The A375 cell line is a […] cells line with the BRAF mutation frequently used for in vitro drug screening assays for anti-melanoma drugs ([Couto et al., 2019]). All reagents were of analytical grade and were obtained from Merck (Darmstadt, Germany) unless stated otherwise. Cells were cultured in Dulbecco’s modified essential medium (DMEM; Hyclone, GE healthcare, South Logan, UT, USA) containing 10% fetal bovine serum (FBS), 1% penicillin/streptomycin, 1% 200 mM L-Glutamine and 1% nonessential amino acids (Lonza, Basel, Switzerland) at 37°C in a humidified atmosphere of 5% CO2. […]
# The growth inhibitory effects of the compounds were tested in the 3-cell line panel consisting of TK10 (renal), UACC62 (melanoma) and MCF7 (breast) cancer cells by Sulforhodamine B (SRB) assay. In addition, activity was also evaluated against HEK293 cells with the 3-(4,5-dimethylthiazol-2-yl)-2,5-diphenyl tetrazolium bromide (MTT) assay ([Mosmann, 1983]). […] The results were expressed as half maximal inhibitory concentrations (IC50) as described before ([Lewies et al., 2018]). […] After incubation, cell viability was determined using a microplate reader (BioTek®, Vermont, USA) at an excitation wavelength of 560 nm and emission wavelength of 630 nm with DMSO measured as a blank. Cell viability was expressed as a percentage relative to the untreated control, which is assumed to be 100% viable. […] Using the MTT assay data, IC50 values were calculated using GraphPad Prism 8. […] The curve was fitted using the log(inhibitor) vs. response function and the IC50 values calculated ([Lewies et al., 2018]). A crude therapeutic index (fold decrease in IC50 value) was calculated as the IC50 of the noncancerous cell-line/IC50 of the cancerous cell line. […] Drug interactions were evaluated for synergism, additivity or antagonism using multiple drug effect analysis, based on the median-principle. Cells were treated with the drug combinations for 24 h and analyzed. […]
# [1] = tested on: HaCat normal keratinocytes; assay: LDH release membrane integrity assay, HaCat; settings: compounds at their IC50 concentrations, 24 h; combinations 1:1; relative to maximum release
# Text: (§1) In order to determine cell membrane integrity, the CytoTox-ONE™ Homogeneous Membrane Integrity Assay (Promega, Madison, WO, USA) was employed. This fluorometric assay measures the release of LDH from cells with damaged cell membranes. […] The manufacturer’s instructions were followed to determine the fluorescence at an excitation wavelength of 560 nm and an emission wavelength of 590 nm. In order to calculate the percentage cytotoxicity, the average fluorescent values of the background medium were subtracted from all average fluorescent values of the experimental samples and the positive control. Cytotoxicity is expressed as a percentage relative to the positive control, which is assumed to be responsible for 100% LDH release. The fold increase in LDH release was taken as the indication of the selectivity toward melanoma cell membranes, calculated as the […]. All experiments were performed at least in triplicate and independently repeated. Statistical significant differences were calculated with one-way ANOVA.
# (§2) Results are expressed relative to the untreated control and the maximum release sample, which was set as having 0% and 100% LDH release respectively. The LDH released from the nonmalignant HaCat cells and the A375 melanoma cells was then used to deduce the selectivity of the compounds against melanoma cell membranes.
# A375 melanoma cells = assay: LDH release membrane integrity assay, A375; type: cell-based, human; settings: for LDH release, result in words: IC50 concentrations, 24 h (Table 3, Figure 6C); for A375 (% LDH release): compounds at their IC50 concentrations, 24 h, combinations 1:1, relative to maximum release; for Fold increase in LDH release: selectivity toward melanoma cell membranes, A375 vs HaCat
# Text: as §1, §2
SMILES,IC50 (HEK293 cells),HaCat (% LDH release) [1],"LDH release, result in words (A375 melanoma cells)",A375 (% LDH release) (A375 melanoma cells),Fold increase in LDH release (A375 melanoma cells)
"C[C@@H]1CC[C@H]2[C@@H](C)C(=O)O[C@@H]3O[C@@]4(C)CC[C@@H]1[C@]32OO4 [Artemisinin 2, artemisinin]",120.7 ± 1.07 µM,18 ± 0.84%,did not significantly increase the release of LDH,24 ± 0.96%,1.3
"C[C@H]1[C@H](N2CCS(=O)(=O)CC2)O[C@@H]2O[C@@]3(C)CC[C@H]4[C@H](C)CC[C@@H]1[C@@]24OO3 [Artemisone 4, artemisone]",86.7 ± 1.09 µM,19 ± 0.79%,did not significantly increase the release of LDH,27 ± 0.81%,1.4
"CC(C)=CCC/C(C)=C/CC/C(C)=C/CN1CCN([C@@H]2O[C@@H]3O[C@@]4(C)CC[C@H]5[C@H](C)CC[C@@H]([C@H]2C)[C@@]35OO4)CC1 [Farnesylpiperazine-DHA 7, farnesylpiperazine-DHA]",35.5 ± 1.09 µM,18 ± 0.67%,–,57 ± 1.21%,3.1
"CC(C)=CCC/C(C)=C/CN1CCN([C@@H]2O[C@@H]3O[C@@]4(C)CC[C@H]5[C@H](C)CC[C@@H]([C@H]2C)[C@@]35OO4)CC1 [Geranylpiperazine-DHA 6, geranylpiperazine-DHA]",24.3 ± 1.15 µM,17 ± 0.95%,–,68 ± 0.91%,4.0

# Reference: article PMC7552967, “Anti-Melanoma Activities of Artemisone and Prenylated Amino-Artemisinins in Combination With Known Anticancer Drugs” (Frontiers in Pharmacology, 2020)
